# Laboratory results: publication PMC4540187 (Cell Death & Disease, 2014)
# Columns and labels:
# Test in all cases: […]-ATP peptide kinase assay with TLC, purified kinase
# Type in all cases: biochemical
# Btk = Btk (Homo sapiens, UniProt Q06187)
# Itk = target: T1, Itk (Homo sapiens, UniProt Q08881)
# T1 sequence (Q08881 1-620): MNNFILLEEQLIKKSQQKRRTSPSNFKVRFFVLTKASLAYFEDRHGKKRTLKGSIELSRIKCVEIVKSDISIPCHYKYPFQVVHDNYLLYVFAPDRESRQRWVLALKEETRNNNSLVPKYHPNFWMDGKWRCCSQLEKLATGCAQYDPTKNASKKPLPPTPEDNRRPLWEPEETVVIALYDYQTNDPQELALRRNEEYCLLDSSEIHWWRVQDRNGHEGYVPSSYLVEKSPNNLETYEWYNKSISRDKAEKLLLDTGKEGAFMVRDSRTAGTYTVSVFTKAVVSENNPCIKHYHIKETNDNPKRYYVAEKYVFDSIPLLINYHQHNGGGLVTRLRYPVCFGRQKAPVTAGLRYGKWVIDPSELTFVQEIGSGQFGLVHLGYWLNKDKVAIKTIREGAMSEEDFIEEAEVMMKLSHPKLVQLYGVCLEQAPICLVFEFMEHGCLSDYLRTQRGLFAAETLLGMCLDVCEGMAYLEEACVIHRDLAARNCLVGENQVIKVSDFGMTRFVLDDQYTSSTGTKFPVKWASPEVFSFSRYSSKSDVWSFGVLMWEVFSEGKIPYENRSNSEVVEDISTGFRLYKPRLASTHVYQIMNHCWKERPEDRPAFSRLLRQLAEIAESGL
# Src = Src (Homo sapiens, UniProt P12931)
# Sequence of Src (P12931 2-536): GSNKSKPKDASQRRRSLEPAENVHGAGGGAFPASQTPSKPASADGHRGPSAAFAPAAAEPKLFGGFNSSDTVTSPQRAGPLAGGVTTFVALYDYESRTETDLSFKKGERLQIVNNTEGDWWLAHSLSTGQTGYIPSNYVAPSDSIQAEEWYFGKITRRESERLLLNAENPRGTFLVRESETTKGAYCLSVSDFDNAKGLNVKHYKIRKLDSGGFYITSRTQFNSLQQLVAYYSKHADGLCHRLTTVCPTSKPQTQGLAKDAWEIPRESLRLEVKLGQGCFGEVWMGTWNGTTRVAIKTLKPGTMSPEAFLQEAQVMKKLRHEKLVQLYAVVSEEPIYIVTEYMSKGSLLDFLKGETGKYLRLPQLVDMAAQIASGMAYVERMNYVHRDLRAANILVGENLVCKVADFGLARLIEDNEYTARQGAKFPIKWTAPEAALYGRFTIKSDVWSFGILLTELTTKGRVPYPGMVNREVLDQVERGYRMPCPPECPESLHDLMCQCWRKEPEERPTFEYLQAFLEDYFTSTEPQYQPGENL
# Sequence of Btk (Q06187 2-659): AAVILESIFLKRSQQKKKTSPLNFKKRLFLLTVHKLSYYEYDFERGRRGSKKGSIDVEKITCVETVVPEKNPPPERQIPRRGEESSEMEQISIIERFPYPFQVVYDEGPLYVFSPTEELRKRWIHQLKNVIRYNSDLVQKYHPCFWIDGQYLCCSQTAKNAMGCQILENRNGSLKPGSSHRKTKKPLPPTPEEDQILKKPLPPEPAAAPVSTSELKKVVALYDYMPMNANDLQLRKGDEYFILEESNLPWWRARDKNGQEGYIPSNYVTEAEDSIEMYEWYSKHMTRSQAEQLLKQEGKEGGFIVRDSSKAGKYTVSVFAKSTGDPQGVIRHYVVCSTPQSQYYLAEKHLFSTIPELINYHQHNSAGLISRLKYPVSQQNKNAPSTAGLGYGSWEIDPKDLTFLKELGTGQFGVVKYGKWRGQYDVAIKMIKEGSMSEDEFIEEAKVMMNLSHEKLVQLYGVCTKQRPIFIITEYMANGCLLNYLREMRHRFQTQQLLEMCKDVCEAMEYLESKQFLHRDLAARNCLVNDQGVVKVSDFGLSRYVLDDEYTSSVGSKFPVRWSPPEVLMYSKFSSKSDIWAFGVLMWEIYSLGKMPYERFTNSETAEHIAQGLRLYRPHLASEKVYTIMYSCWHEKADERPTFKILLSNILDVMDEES
smiles,measurement,setting,value
"CC(C)Cc1nc2cc3c(cc2[nH]c1=O)nc(NC(=O)c1ccc(-c2ccncc2)cc1)n3CCCN1CCCCC1 [CTN06, N-(7-isobutyl-6-oxo-1-(3-(piperidin-1-yl)propyl)-5,6-dihydro-1H-imidazo[4,5-g]quinoxalin-2-yl)-4-(pyridin-4-yl)benzamide]",IC50,Btk,~50 nM
same,"33P-ATP peptide kinase assay with TLC, purified kinase",Itk,"CTN06 appears to have the strongest activity toward Btk and Etk, followed by Itk, another member in the same family"
same,IC50,Src,~5000 nM
